{
  "source": "patent US8206756B2",
  "about": "“Herbal composition for inflammatory disorders” (Piramal Life Sciences Limited, priority 2005, dated 2012)",
  "key": {"TNF-α [1]": {"system": "TNF-α", "test": "LPS-induced TNF-α production in hPBMCs (ELISA)", "assay_type": "cell-based", "conditions": "Homo sapiens; LPS-stimulated hPBMC", "procedure": "Primary screening—Human peripheral blood mononuclear cells (hPBMCs). TNF-α production by lipopolysaccharides (LPS) in hPBMCs was measured according to the method described by Jansky, L. et al (Physiol. Res. 52: 593-598, (2003)). Blood was collected from healthy donors into Potassium EDTA vacutainer tubes (BD vacutainer). The PBMCs were isolated using gradient centrifugation in Histopaque-1077 solution (Sigma). Isolated PBMCs were suspended in RPMI 1640 culture medium (Gibco BRL, Pasley, UK) containing 10% fetal bovine serum (FBS) (Hyclone, Utah, USA), 100 U/ml penicillin (Sigma Chemical Co. St Louis, Mo.) and 100 μg/ml streptomycin (Sigma Chemical Co. St Louis, Mo.). The cell concentration was adjusted to 1×10^6 cells/ml. The viability as determined by trypan blue dye exclusion was uniformly ≧98%. The cell suspension (100 μl) was added to the wells of a 96-well culture plate. Following cell plating, 79 μl of the culture medium and 1 μl of eight different concentrations of the test samples (final concentration 0.03, 0.1, 0.3, 1, 3, 10, 30, 100 μg/ml) dissolved in DMSO (dimethylsulfoxide, Sigma, Mo., USA) were added to the cells. The final concentration of DMSO was adjusted to 0.5%. The vehicle (0.5% DMSO) was used as control. Rolipram (100, 300 μM) was used as a standard. The plates were incubated for 30 min at 37° C. in an atmosphere of 5% CO2. Finally, 20 μl (10 μg/ml) per well of LPS, (Escherchia coli 0127:B8, Sigma Chemical Co., St. Louis, Mo.) was added, for a final concentration of 1 μg/ml. […] The % inhibition was recorded. Percent cytotoxicity of the test samples compared to control was evaluated.\nThe effect of the plant extract on the proinflammatory cytokines: TNF-α, interleukin-1β (IL-1β), interleukin-6 (IL-6) and interleukin-8 (IL-8) was measured using the supernatants generated in the primary screening assay. […]\nThe effect of the Compound 1, on the proinflammatory cytokines: TNF-α interleukin-1β (IL-1β), interleukin-6 (IL-6) and interleukin-8 (IL-8) was measured using the supernatants generated in the primary screening assay. […]"}, "IL-6": {"system": "IL-6", "test": "IL-6 production by synovial cells from a RA patient", "assay_type": "cell-based", "conditions": "Homo sapiens, Synovial cell, 10 hours", "procedure": "Cytokine production by synovial cells obtained from a rheumatoid arthritis (RA) patient undergoing knee replacement surgery was measured according to the method described by Brennan, F. M. et al (The Lancet. July 29: 244-247, (1989)). The synovial membrane tissue was digested in DMEM (Gibco) containing 10% FBS, 100 U/ml penicillin and 100 μg/ml streptomycin, 4 mg/ml collagenase type I (Worthington), 1.5 μg/ml Dnase type I (Sigma) and 15 U/ml heparin and incubated at 37° C. for 3 hours. After incubation, the digested tissue was filtered through a 70-μm membrane and the cells washed 3 times in complete medium (DMEM with 10% FBS). The synovial cells were cultured at 1×10^6 cells/ml in presence/absence of the test sample for 10 hours. The supernatants were harvested by centrifugation and levels of the cytokines (TNF-α, IL-1β, IL-6, IL-8) measured by ELISA. To assess the cytotoxic effect of the plant extracts, the cellular viability test was performed using MTS reagent. The 50% inhibitory concentration (IC50) values were calculated by a nonlinear regression method using GraphPad software (Prism 3.03).\nEffect on proinflammatory cytokines produced by synovial cells obtained from a RA patient was studied for compound 1 as described by procedure of example 8."}, "TNF-α [2]": {"system": "TNF-α", "test": "LPS-induced TNF-α release in BALB/c mice", "assay_type": "in vivo", "conditions": "LPS 1 mg/kg i.p., plasma", "procedure": "The protocol described by Fukuda T. et al (Eur. J. Pharmacol., 391: 317-320, (2000)) was followed. BALB/c mice were divided into groups of ten each. The test sample, suspended in Tween 80 and 0.5% carboxy methylcellulose (CMC), was orally (p.o.) administered to the mice. One hour later, LPS dissolved in sterile, pyrogen-free saline was administered i.p. at the dose of 1 mg/kg. The negative control group received saline as an i.p injection, while all other groups received LPS. Rolipram (30 mg/kg, p.o.) was used as the standard drug. One and a half hours later, under urethane anaesthesia (1.5 g/kg, i.p.) blood was collected from the abdominal artery using a 1 ml syringe flushed with heparin (500 IU/ml). Heparin (5 μl) was used as an anticoagulant in the blood collection tubes. Plasma was separated by centrifugation at 10000 rpm at room temperature, aliquoted and stored at −70° C. until analysis. TNF-α levels in the blood samples were assayed using ELISA and percent inhibition of TNF-α release compared to the control group was calculated."}},
  "note": "pIC50: −log10 of the molar value.",
  "data": [
    {"smiles": "C=C1C(=O)OC2C3=C(C)CCCC3(C)CCC12O", "note": "(centres unmarked) [Compound 1, 3a-hydroxy-5a,9-dimethyl-3-methylene-3a,4,5,5a,6,7,8,9b-octahydro-3H-naphtho[1,2-b]furan-2-one]", "values": [
      {"measurement": "pIC50", "setting": "TNF-α [1]", "result": 6.15},
      {"measurement": "pIC50", "setting": "IL-6", "result": 5.85},
      {"measurement": "% inhibition of TNF-α release", "setting": "TNF-α [2]; 10 mg/kg p.o.", "result": "28.69 ± 13.71", "unit": "%"},
      {"measurement": "% inhibition of TNF-α release", "setting": "TNF-α [2]; 30 mg/kg p.o.", "result": "39.98 ± 10.32", "unit": "%"},
      {"measurement": "% inhibition of TNF-α release", "setting": "TNF-α [2]; 100 mg/kg p.o.", "result": "87.10 ± 3.67", "unit": "%"}
    ]}
  ]
}
